In patent publication US20090163528A1, “Pharmaceutical composition having analgesic effects” (priority 2004, published 2009):
Structures can show the parent of a compound that is named as a salt. Where two headings read alike, the source gives them in different places.

Assays:
[1] = tested on: Kunming breed mice; type: in vivo
[2] = tested on: mice; type: in vivo; settings: Table 5
From the text: The division of animal groups, content of test drugs, dose and administration is the same as those in the body twisting test, while the contra positive is pethidine hydrochloride only.
In the course of the test, the mice show up reactions of hindleg sucking, hindleg kicking, skipping, etc; take the reaction of hindleg sucking as the pain indicator.

[3] = tested on: Kunming breed mice; type: in vivo; settings: mesaconitine 0.5 mg/kg stomach perfusion
[4] = Toxicity test of the active medical ingredients (previous acute toxicology); settings: mouse, in vivo
[5] = tested on: Kunming breed mice; experiment: Body twisting test, mixtures of fuziline and hypaconitine in different proportions (Test 6); type: in vivo; settings: hypaconitine 1 mg/kg stomach perfusion
[6] = tested on: mice; experiment: Toxicity test of the active medical ingredients (previous acute toxicology); settings: mouse, in vivo
[7] = tested on: Kunming breed mice; experiment: Body twisting test, mixtures of fuziline and benzoylmesaconitine in different proportions (Test 7); type: in vivo; settings: benzoylmesaconitine 100 mg/kg stomach perfusion
[8] = Table 3, 0.25 mg/kg stomach perfusion
[9] = Table 3, 0.5 mg/kg stomach perfusion
[10] = Table 3, 1 mg/kg stomach perfusion
[11] = Table 3, 2 mg/kg stomach perfusion
[12] = Table 3, 4 mg/kg stomach perfusion
[13] = Table 3, 50 mg/kg stomach perfusion
[14] = Table 3, 100 mg/kg stomach perfusion
[15] = Table 3, 200 mg/kg stomach perfusion
[16] = Table 3, 400 mg/kg stomach perfusion

## CCOC(=O)C1(c2ccccc2)CCN(C)CC1 [Pethidine hydrochloride, pethidine hydrochloride, reference compound]
[1]; mouse, in vivo, 40 mg/kg
  Body twisting number ( χ ± SD): 0 ± 0
[1]; mouse, in vivo, 40 mg/kg, hydrochloride
  Pain suppression rate: 100%

## COC[C@]12CN(C)[C@H]3C4C(OC)C1C3(C(OC)CC2O)C1C[C@@]2(O)C(OC(=O)c3ccccc3)C1[C@]4(OC(C)=O)[C@@H](O)C2OC (stereo partly shown) [Mesaconitine, mesaconitine]
[2]; 12.5 mg/kg stomach perfusion, 15 minutes
  Increasing rate of threshold pain after administration ( X ± SD): 12.1 ± 45.0%
[2]; 12.5 mg/kg stomach perfusion, 30 minutes
  Increasing rate of threshold pain after administration ( X ± SD): −6.3 ± 31.4%
[2]; 12.5 mg/kg stomach perfusion, 60 minutes
  Increasing rate of threshold pain after administration ( X ± SD): −0.5 ± 38.7%
[2]; 12.5 mg/kg stomach perfusion, 90 minutes
  Increasing rate of threshold pain after administration ( X ± SD): −11.3 ± 34.2%
[2]; 12.5 mg/kg stomach perfusion, 120 minutes
  Increasing rate of threshold pain after administration ( X ± SD): 11.1 ± 38.8%
[2]; 25 mg/kg stomach perfusion, 15 minutes
  Increasing rate of threshold pain after administration ( X ± SD): 39.7 ± 76.6%
[2]; 25 mg/kg stomach perfusion, 30 minutes
  Increasing rate of threshold pain after administration ( X ± SD): 59.2 ± 146.9%
[2]; 25 mg/kg stomach perfusion, 60 minutes
  Increasing rate of threshold pain after administration ( X ± SD): 37.2 ± 88.5%
[2]; 25 mg/kg stomach perfusion, 90 minutes
  Increasing rate of threshold pain after administration ( X ± SD): 61.3 ± 82.1^Δ %
[2]; 25 mg/kg stomach perfusion, 120 minutes
  Increasing rate of threshold pain after administration ( X ± SD): 80.7 ± 100.1%
[2]; 50 mg/kg stomach perfusion, 15 minutes
  Increasing rate of threshold pain after administration ( X ± SD): 21.4 ± 42.9%
[2]; 50 mg/kg stomach perfusion, 30 minutes
  Increasing rate of threshold pain after administration ( X ± SD): 14.4 ± 34.7%
[2]; 50 mg/kg stomach perfusion, 60 minutes
  Increasing rate of threshold pain after administration ( X ± SD): 7.9 ± 37.8%
[2]; 50 mg/kg stomach perfusion, 90 minutes
  Increasing rate of threshold pain after administration ( X ± SD): 30.4 ± 44.1^Δ %
[2]; 50 mg/kg stomach perfusion, 120 minutes
  Increasing rate of threshold pain after administration ( X ± SD): 36.0 ± 42.6%
[2]; mesaconitine 100 mg/kg stomach perfusion, 15 minutes
  Increasing rate of threshold pain after administration ( X ± SD): 124.8 ± 165.4%
[2]; mesaconitine 100 mg/kg stomach perfusion, 30 minutes
  Increasing rate of threshold pain after administration ( X ± SD): 97.7 ± 184.6%
[2]; mesaconitine 100 mg/kg stomach perfusion, 60 minutes
  Increasing rate of threshold pain after administration ( X ± SD): 64.3 ± 149.5%
[2]; mesaconitine 100 mg/kg stomach perfusion, 90 minutes
  Increasing rate of threshold pain after administration ( X ± SD): 108.3 ± 105.0^ΔΔ %
[2]; mesaconitine 100 mg/kg stomach perfusion, 120 minutes
  Increasing rate of threshold pain after administration ( X ± SD): 49.0 ± 52.9%
[1]; [8]
  Body twisting number ( χ ± SD): 33.6 ± 11.5
  Pain suppression rate: 14.50%
[1]; [9]
  Body twisting number ( χ ± SD): 20.0 ± 9.6^ΔΔ
  Pain suppression rate: 49.11%
[1]; [10]
  Body twisting number ( χ ± SD): 21.8 ± 12.6^ΔΔ
  Pain suppression rate: 44.53%
[1]; [11]
  Body twisting number ( χ ± SD): 19.3 ± 10.0^ΔΔ
  Pain suppression rate: 50.89%
[3]
  Pain suppression rate: 62.6%
[4]; LD50
  LD50: 6.41 mg/kg

## COC[C@@]12CCC(OC)C34C5C[C@@]6(O)C(OC(=O)c7ccccc7)C5[C@@](OC(C)=O)(C(C(OC)C31)[C@@H]4N(C)C2)[C@@H](O)C6OC (stereo partly shown) [Hypaconitine, hypaconitine]
[2]; 1 mg/kg stomach perfusion, 15 minutes
  Increasing rate of threshold pain after administration ( X ± SD): −16.6 ± 31.9%
[2]; 1 mg/kg stomach perfusion, 30 minutes
  Increasing rate of threshold pain after administration ( X ± SD): −31.9 ± 24.2%
[2]; 1 mg/kg stomach perfusion, 60 minutes
  Increasing rate of threshold pain after administration ( X ± SD): −18.1 ± 34.5%
[2]; 1 mg/kg stomach perfusion, 90 minutes
  Increasing rate of threshold pain after administration ( X ± SD): −13.0 ± 14.9%
[2]; 1 mg/kg stomach perfusion, 120 minutes
  Increasing rate of threshold pain after administration ( X ± SD): 28.3 ± 56.3%
[2]; 2 mg/kg stomach perfusion, 15 minutes
  Increasing rate of threshold pain after administration ( X ± SD): 72.4 ± 57.6 %
[2]; 2 mg/kg stomach perfusion, 30 minutes
  Increasing rate of threshold pain after administration ( X ± SD): 36.0 ± 53.4%
[2]; 2 mg/kg stomach perfusion, 60 minutes
  Increasing rate of threshold pain after administration ( X ± SD): 17.3 ± 56.1%
[2]; 2 mg/kg stomach perfusion, 90 minutes
  Increasing rate of threshold pain after administration ( X ± SD): 15.3 ± 60.1%
[2]; 2 mg/kg stomach perfusion, 120 minutes
  Increasing rate of threshold pain after administration ( X ± SD): −13.0 ± 33.1%
[2]; 4 mg/kg stomach perfusion, 15 minutes
  Increasing rate of threshold pain after administration ( X ± SD): 142.7 ± 139.4 %
[2]; 4 mg/kg stomach perfusion, 30 minutes
  Increasing rate of threshold pain after administration ( X ± SD): 104.1 ± 137.4 %
[2]; 4 mg/kg stomach perfusion, 60 minutes
  Increasing rate of threshold pain after administration ( X ± SD): 81.7 ± 100.0 %
[2]; 4 mg/kg stomach perfusion, 90 minutes
  Increasing rate of threshold pain after administration ( X ± SD): 34.4 ± 59.3 %
[2]; 4 mg/kg stomach perfusion, 120 minutes
  Increasing rate of threshold pain after administration ( X ± SD): 59.1 ± 55.6 %
[1]; [9]
  Body twisting number ( χ ± SD): 27.6 ± 11.5
  Pain suppression rate: 29.77%
[1]; [10]
  Body twisting number ( χ ± SD): 24.5 ± 9.8
  Pain suppression rate: 37.66%
[1]; [11]
  Body twisting number ( χ ± SD): 23.6 ± 10.9
  Pain suppression rate: 39.95%
[1]; [12]
  Body twisting number ( χ ± SD): 2.8 ± 4.5
  Pain suppression rate: 92.88%
[5]
  Pain suppression rate: 48.0%
[4]; 8.19 mg/kg, 95% of the confidence interval of LD50
  LD50: 10.9 to 15 mg/kg
[4]; 8.19 mg/kg, LD50, previous acute toxicology
  LD50: 12.8 mg/kg
[4]; LD50
  LD50: 12.8 mg/kg
[6]
  dose with no mice dead: 8.19 mg/kg

## COC[C@]12CN(C)[C@H]3C4C(OC)C1C3(C(OC)CC2O)C1C[C@@]2(O)C(OC(=O)c3ccccc3)C1[C@]4(O)[C@@H](O)C2OC (stereo partly shown) [Benzoylmesaconitine, benzoylmesaconitine]
[7]
  Pain suppression rate: 34.6%
[2]; 200 mg/kg stomach perfusion, 15 minutes
  Increasing rate of threshold pain after administration ( X ± SD): 22.1 ± 52.0%
[2]; 200 mg/kg stomach perfusion, 30 minutes
  Increasing rate of threshold pain after administration ( X ± SD): 32.9 ± 45.1 %
[2]; 200 mg/kg stomach perfusion, 60 minutes
  Increasing rate of threshold pain after administration ( X ± SD): 40.3 ± 76.4%
[2]; 200 mg/kg stomach perfusion, 90 minutes
  Increasing rate of threshold pain after administration ( X ± SD): 46.0 ± 87.4%
[2]; 200 mg/kg stomach perfusion, 120 minutes
  Increasing rate of threshold pain after administration ( X ± SD): 53.6 ± 93.9%
[2]; 400 mg/kg stomach perfusion, 15 minutes
  Increasing rate of threshold pain after administration ( X ± SD): 41.3 ± 90.2%
[2]; 400 mg/kg stomach perfusion, 30 minutes
  Increasing rate of threshold pain after administration ( X ± SD): 35.2 ± 57.2 %
[2]; 400 mg/kg stomach perfusion, 60 minutes
  Increasing rate of threshold pain after administration ( X ± SD): 78.8 ± 104.0 %
[2]; 400 mg/kg stomach perfusion, 90 minutes
  Increasing rate of threshold pain after administration ( X ± SD): 59.5 ± 88.5%
[2]; 400 mg/kg stomach perfusion, 120 minutes
  Increasing rate of threshold pain after administration ( X ± SD): 53.7 ± 117.0%
[2]; benzoylmesaconitine 100 mg/kg stomach perfusion, 15 minutes
  Increasing rate of threshold pain after administration ( X ± SD): −0.4 ± 33.8%
[2]; benzoylmesaconitine 100 mg/kg stomach perfusion, 30 minutes
  Increasing rate of threshold pain after administration ( X ± SD): 13.7 ± 52.3%
[2]; benzoylmesaconitine 100 mg/kg stomach perfusion, 60 minutes
  Increasing rate of threshold pain after administration ( X ± SD): 64.6 ± 76.7 %
[2]; benzoylmesaconitine 100 mg/kg stomach perfusion, 90 minutes
  Increasing rate of threshold pain after administration ( X ± SD): 71.1 ± 104.5%
[2]; benzoylmesaconitine 100 mg/kg stomach perfusion, 120 minutes
  Increasing rate of threshold pain after administration ( X ± SD): 106.2 ± 116.5%
[1]; [13]
  Body twisting number ( χ ± SD): 27.2 ± 12.2
  Pain suppression rate: 20.70%
[1]; [14]
  Body twisting number ( χ ± SD): 27.4 ± 15.9
  Pain suppression rate: 20.12%
[1]; [15]
  Body twisting number ( χ ± SD): 21.0 ± 15.1
  Pain suppression rate: 38.78%
[1]; [16]
  Body twisting number ( χ ± SD): 20.4 ± 12.9
  Pain suppression rate: 40.52%
[6]
  maximum tolerance dose: 1000 mg/kg
